EPA's ToxRefDB 2

Assays:
rat [1] = settings: Sub-acute repeat dose toxicity, Oral, Gavage/Intubation, dose end: 8 day, group: systemic
dog [2] = settings: Subchronic oral toxicity in nonrodent, beagle, Gavage/Intubation, dose end: 93 day
rat [3] = settings: Sub-acute repeat dose toxicity, Oral, Gavage/Intubation, dose end: 12 day, group: systemic
rat [4] = settings: Subchronic oral toxicity in rodents, sprague dawley, Gavage/Intubation, dose end: 91 day, group: systemic
rat [5] = settings: Sub-acute repeat dose toxicity; Oral; Gavage/Intubation; dose end: 4 day; group: systemic; systemic / clinical chemistry / [other] / [other] + systemic / clinical chemistry / 5' nucleotidase / 5' nucleotidase + systemic / clinical …
rat [6] = settings: Sub-acute repeat dose toxicity, Oral, Gavage/Intubation, dose end: 14 day, group: systemic
rat [7] = settings: Sub-acute repeat dose toxicity; Oral; Gavage/Intubation; dose end: 5 day; group: systemic; systemic / in life observation / food consumption / food consumption
rat [8] = settings: Sub-acute repeat dose toxicity, Oral, Gavage/Intubation, dose end: 5 day, group: systemic
rat [9] = settings: Multigenerational reproductive toxicity study, sprague dawley, Oral, Feed, dose end: 2 generation
mouse [10] = settings: Carcinogenicity; other; Oral; Feed; dose end: 24 month; group: systemic; systemic / hematology / anemia / anemia - nos + systemic / organ weight / liver / absolute + systemic / organ weight / liver / relative to …
rat [11] = settings: Combined chronic toxicity/carcinogenicity; wistar; Oral; Feed; dose end: 24 month; group: systemic; systemic / organ weight / spleen / absolute + systemic / organ weight / spleen / relative to body weight + systemic / pathology microscopic…
rat [12] = settings: Subchronic oral toxicity in rodents, other, Feed, dose end: 6 month, group: systemic
rat [13] = settings: Other (NonGuideline or Guideline Not Listed); sprague dawley; Oral; Gavage/Intubation; dose end: 5 day; group: cannot be grouped; systemic / clinical chemistry / alanine aminotransferase (alt/sgpt) / alanine aminotransferase (alt/sgpt) + systemic / clinical chemistry / …
rat [14] = settings: Sub-acute repeat dose toxicity; sprague dawley; Oral; Gavage/Intubation; dose end: 16 day; group: systemic; systemic / organ weight / liver / absolute + systemic / organ weight / liver / relative to body weight + systemic / organ weight / liver / …
primate = settings: Other (NonGuideline or Guideline Not Listed); rhesus; Oral; Gavage/Intubation; dose end: 8 day; group: cannot be grouped; systemic / clinical chemistry / alanine aminotransferase (alt/sgpt) / alanine aminotransferase (alt/sgpt) + systemic / clinical chemistry / …
rat [15] = settings: Sub-acute repeat dose toxicity; sprague dawley; Oral; Gavage/Intubation; dose end: 6 day; group: systemic; systemic / clinical chemistry / alanine aminotransferase (alt/sgpt) / alanine aminotransferase (alt/sgpt) + systemic / clinical chemistry / …
rat [16] = settings: Other (NonGuideline or Guideline Not Listed), sprague dawley, Oral, Gavage/Intubation, dose end: 7 day, group: cannot be grouped
rat [17] = settings: Subchronic oral toxicity in rodents, fischer, Feed, dose end: 13 week, group: systemic
rat [18] = settings: Combined chronic toxicity/carcinogenicity, fischer, Oral, Feed, dose end: 2 year, group: systemic
rat [19] = settings: Multigenerational reproductive toxicity study, other, Oral, Feed, dose end: 2 generation
dog [20] = settings: Chronic toxicity, beagle, Oral, Feed, dose end: 52 week, group: systemic
dog [21] = settings: Subchronic oral toxicity in nonrodent, beagle, Feed, dose end: 13 week, group: systemic
mouse [22] = settings: Subchronic oral toxicity in rodents, cd1, Feed, dose end: 13 week, group: systemic, systemic / clinical chemistry / alkaline phosphatase (alp/alk) / alkaline phosphatase (alp/alk) + systemic / organ weight / liver / nos + …
[23] = systemic / clinical chemistry / albumin / albumin + systemic / clinical chemistry / globulins / globulins + systemic / clinical chemistry / …
[24] = systemic / hematology / neutrophils / neutrophils
[25] = group: maternal, reproductive / reproductive performance / estrous cycle / absent corpora lutea
[26] = group: systemic, systemic / organ weight / testes / absolute + systemic / pathology microscopic / testes / degeneration
[27] = group: systemic, systemic / organ weight / testes / absolute + systemic / pathology microscopic / testes / degeneration + systemic / in life observation / …
[28] = systemic / hematology / neutrophils / neutrophils + systemic / pathology microscopic / intestine small / inflammation + systemic / pathology…
[29] = systemic / in life observation / clinical signs / abnormal feces + systemic / in life observation / clinical signs / fur (altered appearance…
[30] = systemic / in life observation / mortality / mortality + systemic / organ weight / testes / absolute + systemic / pathology microscopic / …
[31] = systemic / clinical chemistry / 5' nucleotidase / 5' nucleotidase + systemic / clinical chemistry / glucose / glucose + systemic / clinical …
[32] = systemic / clinical chemistry / potassium / potassium
[33] = systemic / hematology / neutrophils / neutrophils + systemic / pathology microscopic / mesentery / inflammation + systemic / pathology …
[34] = group: offspring, systemic / in life observation / body weight / offspring (pup) weight
[35] = group: parental, systemic / in life observation / body weight / body weight + systemic / in life observation / body weight / body weight gain + systemic / in…
[36] = systemic / pathology gross / urinary bladder / lesion(s) (nos) + systemic / pathology microscopic / blood vessel / [other] + systemic / …
[37] = systemic / clinical chemistry / alkaline phosphatase (alp/alk) / alkaline phosphatase (alp/alk) + systemic / clinical chemistry / glucose / …
[38] = systemic / clinical chemistry / glucose / glucose + systemic / pathology gross / liver / discolored + systemic / pathology microscopic / …
[39] = systemic / clinical chemistry / albumin / albumin + systemic / clinical chemistry / cholesterol / cholesterol + systemic / clinical …
[40] = systemic / in life observation / body weight / body weight + systemic / in life observation / body weight / body weight gain + systemic / …
[41] = group: offspring, systemic / in life observation / body weight / offspring (pup) weight gain
[42] = group: parental, systemic / organ weight / liver / relative to body weight
[43] = group: parental, systemic / pathology microscopic / kidney / crystals + systemic / pathology microscopic / kidney / degeneration + systemic / pathology …
[44] = systemic / pathology microscopic / kidney / hyperplasia + systemic / in life observation / body weight / body weight gain + systemic / in …
[45] = systemic / pathology microscopic / kidney / crystals + systemic / pathology microscopic / kidney / hyperplasia + systemic / organ weight / …

## CCc1nn(C2CCCCC2)c2cc(C3(C#N)CCC(C(=O)O)CC3)ccc12 (centres undefined)
Rat [1]; [23]
  LOAEL: > 30 mg/kg/day
  NOAEL: ≥ 30 mg/kg/day
Rat [1]; [24]
  LEL: 15 mg/kg/day
  NEL: < 15 mg/kg/day
Dog [2]; [25]
  LEL: 1 mg/kg/day
  LOAEL: > 10 mg/kg/day
  NEL: < 1 mg/kg/day
  NOAEL: ≥ 10 mg/kg/day
Dog [2]; [26]
  LEL: 1 mg/kg/day
  NEL: < 1 mg/kg/day
Dog [2]; [27]
  LOAEL: > 10 mg/kg/day
  NOAEL: ≥ 10 mg/kg/day
Rat [3]; [23]
  LOAEL: > 30 mg/kg/day
  NOAEL: ≥ 30 mg/kg/day
Rat [3]; [28]
  LEL: 15 mg/kg/day
  NEL: < 15 mg/kg/day
Rat [4]; [29]
  LEL: 1 mg/kg/day
  NEL: < 1 mg/kg/day
Rat [4]; [30]
  LOAEL: > 15 mg/kg/day
  NOAEL: ≥ 15 mg/kg/day
Rat [5]
  LEL: 30 mg/kg/day
  LOAEL: > 30 mg/kg/day
  NEL: < 30 mg/kg/day
  NOAEL: ≥ 30 mg/kg/day
Rat [6]; [31]
  LOAEL: > 60 mg/kg/day
  NOAEL: ≥ 60 mg/kg/day
Rat [6]; [32]
  LEL: 3 mg/kg/day
  NEL: < 3 mg/kg/day
Rat [7]
  LEL: 1 mg/kg/day
  LOAEL: > 10 mg/kg/day
  NEL: < 1 mg/kg/day
  NOAEL: ≥ 10 mg/kg/day
Rat [8]; [23]
  LOAEL: > 30 mg/kg/day
  NOAEL: ≥ 30 mg/kg/day
Rat [8]; [33]
  LEL: 15 mg/kg/day
  NEL: < 15 mg/kg/day

## CN(C)C(=O)Nc1ccc(Cl)c(Cl)c1 [Diuron]
Rat [9]; [34]
  LEL: 139 mg/kg/day
  LOAEL: 139 mg/kg/day
  NEL: 18.9 mg/kg/day
  NOAEL: 18.9 mg/kg/day
Rat [9]; [35]
  LEL: 101 mg/kg/day
  LOAEL: 101 mg/kg/day
  NEL: 14.8 mg/kg/day
  NOAEL: 14.8 mg/kg/day
Mouse [10]
  LEL: 640 mg/kg/day
  LOAEL: 640 mg/kg/day
  NEL: 50.8 mg/kg/day
  NOAEL: 50.8 mg/kg/day
Rat [11]
  LEL: 1 mg/kg/day
  LOAEL: 1 mg/kg/day
  NEL: < 1 mg/kg/day
  NOAEL: < 1 mg/kg/day
Rat [12]; [36]
  LEL: 0.3 mg/kg/day
  NEL: < 0.3 mg/kg/day
  NOAEL: 0.7 mg/kg/day
Rat [12]; systemic / pathology microscopic / spleen / pigmentation
  LOAEL: 1.6 mg/kg/day

## CCn1nc(Cc2ccccc2)cc1C1CCN(C[C@H]2C[C@H](N(C)[C@@H](C(=O)O)C(C)C)C[C@@H]2c2cccc(F)c2)CC1 [MK-578]
Rat [13]
  LEL: 250 mg/kg/day
  LOAEL: > 500 mg/kg/day
  NEL: < 250 mg/kg/day
  NOAEL: ≥ 500 mg/kg/day
Rat [14]
  LEL: 100 mg/kg/day
  LOAEL: > 100 mg/kg/day
  NEL: 30 mg/kg/day
  NOAEL: ≥ 100 mg/kg/day
primate
  LEL: 200 mg/kg/day
  LOAEL: > 200 mg/kg/day
  NEL: < 200 mg/kg/day
  NOAEL: ≥ 200 mg/kg/day
Rat [15]
  LEL: 500 mg/kg/day
  LOAEL: > 500 mg/kg/day
  NEL: < 500 mg/kg/day
  NOAEL: ≥ 500 mg/kg/day
Rat [16]; [37]
  LOAEL: > 250 mg/kg/day
  NOAEL: ≥ 250 mg/kg/day
Rat [16]; [38]
  LEL: 100 mg/kg/day
  NEL: < 100 mg/kg/day

## COc1cnc(OC)n2nc(NS(=O)(=O)c3c(OCC(F)F)cccc3C(F)(F)F)nc12 [Penoxsulam]
Rat [17]; [39]
  LOAEL: 263 mg/kg/day
  NOAEL: 53.3 mg/kg/day
Rat [17]; systemic / in life observation / clinical signs / perineal soiling
  LEL: 52.3 mg/kg/day
Rat [17]; systemic / in life observation / clinical signs / perineal soiling + systemic / hematology / blood clotting / blood clotting - prothrombin …
  NEL: 5.2 mg/kg/day
Rat [18]; [40]
  LOAEL: 254 mg/kg/day
  NEL: 5.1 mg/kg/day
  NOAEL: 50.9 mg/kg/day
Rat [18]; systemic / pathology microscopic / kidney / hyperplasia + systemic / in life observation / clinical signs / perineal soiling
  LEL: 50.9 mg/kg/day
Rat [19]; group: offspring, developmental / developmental landmark / preputial separation / preputial separation
  LEL: 100 mg/kg/day
Rat [19]; [41]
  LOAEL: 300 mg/kg/day
  NOAEL: 100 mg/kg/day
Rat [19]; group: offspring, systemic / in life observation / body weight / offspring (pup) weight gain + developmental / developmental landmark / preputial separation…
  NEL: 30 mg/kg/day
Rat [19]; [42]
  LEL: 30 mg/kg/day
  NEL: < 30 mg/kg/day
Rat [19]; [43]
  LOAEL: 100 mg/kg/day
  NOAEL: 30 mg/kg/day
Dog [20]; systemic / pathology microscopic / kidney / hyperplasia
  LOAEL: 46.2 mg/kg/day
Dog [20]; [44]
  LEL: 46.2 mg/kg/day
  NEL: 14.7 mg/kg/day
  NOAEL: 14.7 mg/kg/day
Dog [21]; systemic / pathology microscopic / kidney / crystals + systemic / pathology microscopic / kidney / hyperplasia
  LOAEL: 49.4 mg/kg/day
Dog [21]; [45]
  LEL: 49.4 mg/kg/day
  NEL: 17.8 mg/kg/day
  NOAEL: 17.8 mg/kg/day
Mouse [22]
  LEL: 511 mg/kg/day
  LOAEL: > 1030 mg/kg/day
  NEL: 102 mg/kg/day
  NOAEL: ≥ 1030 mg/kg/day
